Experimental findings from US10342837B2, “Extracts and compositions of helichrysum odoratissimum for preventing and treating skin cancers” (University of Pretoria, priority 2013, dated 2019) are described below.

Converted amounts (≈) assume the structure as drawn. Numbered stars: 1 amine (or outer) side, 2 acyl side, 3 side chain; on linkers, the order of the positions; unused ones are H or OH. Bridge positions count the residues as written; N and C are the ends. Square brackets hold non-standard residues; d marks the D form. Peptide text beside a SMILES is read from it. I, II: the chains in the order shown. Actinocin(9to1) = Cc1c2oc3c(C)ccc(C(=O)[*:1])c3nc-2c(C(=O)[*:2])c(N)c1=O; NMeV = CN[C@H](C(=O)O)C(C)C; Sar = CNCC(=O)O

Common to all, as to assay type: cell-based
Data set [1] in a line: Cytotoxicity on U937 cells. Particulars: human. The source says:
(§1) The cytotoxicity of the H. odoratissimum extract was first analyzed on the U937 cells to determine IC50 values at which the extract could be tested when evaluating the cytokine profile and to ensure that the concentrations of phytohemagglutinin (PHA) and pentoxifylline, used to determine the cytokine profile, was not toxic to the U937 cells.

The subject of a further data set is IL-12. Put plainly: IL-12 production in U937 cells (ELISA). Particulars: for production of IL-12 of the controls compared to the medium control (in words): PHA at 5 μg/ml, pentoxifylline at 20 μg/ml. Here is the method: (§2) The levels of cytokine production (IL-8 and IL-12) from cell supernatants were measured by enzyme-linked immunosorbent assay (ELISA) according to the manufacturer's protocol (BD Biosciences, San Diego, Calif., USA). The levels of IL-12 were determined as it was reported to act as a potential anti-tumour agent (Brunda et al. 1993). IL-8 was measured as it plays a major role in the progression of various cancer cells by invasion, migration, adhesion, proliferation (Kuai et al. 2012). Briefly U937 cells were plated at a concentration of 2.5×10^5 cell per well in a 24-well plate. The cells were incubated for 24 h with 0.1 μg/ml PMA at 37° C. and 5% CO2 to allow the monocytes to differentiate into macrophages. The cells were treated with various concentrations of H. odoratissimum extracts. Controls included 20 μg/ml pentoxifylline, 5 μg/ml phytohemagglutinin (PHA), as well as vehicle-treated control cells (1% DMSO) and a medium only control. The cells were incubated for a further 20 hrs and thereafter centrifuged at 980 rpm for 5 min to collect the cell free supernatant and analyse the concentration of IL-8 and IL-12.
(§3) H. odoratissimum was analyzed at 20 μg/ml, 15 μg/ml, 10 μg/ml and 5 μg/ml to determine whether the extract was able to induce the production of IL-12 and inhibit the production of IL-8 in phytohemagglutinin (PHA) stimulated U937 cells, the results of which are depicted in Table 2.
Background: In an ELISA, binding on a coated surface is turned into a signal by an enzyme label.

Another data set concerns IL-8. Put plainly: IL-8 production in U937 cells (ELISA). The protocol:
as §2, with “The cells were incubated for a further 20 hrs and thereafter centrifuged at 980 rpm for 5 min to collect the cell free supernatant and analyse the concentration of IL-8 and IL-12.” left out
as §3

Data set [2] in a line: Cell viability of U937 cells in cytokine production test. Particulars: human. The protocol: as §2, with “The cells were incubated for a further 20 hrs and thereafter centrifuged at 980 rpm for 5 min to collect the cell free supernatant and analyse the concentration of IL-8 and IL-12.” left out
as §3

Data set [3] relates to U937 cells. Put plainly: Cytotoxicity on U937 cells. Conditions: U937 cells.
Excerpt: as §1

In data set [4] the test system is U937 cells. The data set is described as follows: Cell viability of U937 cells in cytokine production test. Conditions: sample at 5 μg/ml; U937 cells. The protocol:
as §2, with “The cells were incubated for a further 20 hrs and thereafter centrifuged at 980 rpm for 5 min to collect the cell free supernatant and analyse the concentration of IL-8 and IL-12.” left out
as §3

In the next data set the test system is A431 cells. The data set is described as follows: Light microscopy, haematoxylin and eosin staining of A431 cells (apoptosis). Particulars: 0.025 μg/ml, 72 h exposure. Here is the method:
The specific concentrations of extract were chosen due to the anti-proliferative activity that was observed. Exponentially growing cells were seeded at 100,000 cell per well in 6-well plates on heat-sterilized coverslips. After 24 h incubation at 37° C. and 5% […] for cell adherence, cells were exposed to 15 μg/ml, 30 μg/ml and 7.5 μg/ml of H. odoratissimum extract including vehicle-treated control cells (2% DMSO); cells propagate in growth medium, as well as 0.025 μg/ml Actinomycin D and incubated for 72 h at 37° C. Cells were then fixed in Bouin's fixative for 30 min and stained by standard haematoxylin and eosin staining procedures (Stander et al. 2009).
The influence of H. odoratissimum was compared to a medium control, vehicle-treated control and Actinomycin D (FIG. 3).

A word on the IC50: it is the concentration needed to halve the response being measured. Read a high IC50 as lower potency. By viability is commonly meant a read-out of living cells in per cent, often relative to untreated cells. Regarding `CC(=O)CCCCn1c(=O)c2c(ncn2C)n(C)c1=O` [Pentoxifylline, pentoxifylline], the IC50 in data set [1] came out at 170 ± 6.4 µg/mL (≈ 611 µM). For the same molecule, in the data set with IL-12, the “production of IL-12 of the controls compared to the medium control (in words)” value is reported as “inhibition”. Moreover, in the data set with IL-12 (sample at 20 μg/ml), the “IL-12” value came to 1.37 ± 0.9 pg/mL. Further, in the data set with IL-8 (sample at 20 μg/ml), the “IL-8” value came out at 51.2 ± 7.2 pg/mL. The viability at 20 h, 20 μg/ml in data set [2] was 106%.
For phytohemagglutinin [PHA], in the data set on U937 cells [3], the “IC50 (in μg/ml), cytotoxicity on U937 cells” value stood at 318 ± 7.8 µg/mL. For the same molecule, the “production of IL-12 of the controls compared to the medium control (in words)” value in the data set with IL-12 is reported as “increase in IL-12”. Moreover, in the data set with IL-12 (sample at 5 μg/ml), the “IL-12” value was 9.49 ± 3.8 pg/mL. Further, the “IL-8” value in the data set with IL-8 (sample at 5 μg/ml) is 107 ± 5.6 pg/mL. In the data set on U937 cells [4], the “Cell viability in %” value was 101% ± 0.3.
With `Cc1c2oc3c(C)ccc(C(=O)N[C@@H]4C(=O)N[C@H](C(C)C)C(=O)N5CCC[C@H]5C(=O)N(C)CC(=O)N(C)[C@@H](C(C)C)C(=O)O[C@@H]4C)c3nc-2c(C(=O)N[C@@H]2C(=O)N[C@H](C(C)C)C(=O)N3CCC[C@H]3C(=O)N(C)CC(=O)N(C)[C@@H](C(C)C)C(=O)O[C@@H]2C)c(N)c1=O` [Actinomycin D] (I: T[dV]P[Sar][NMeV] / II: T[dV]P[Sar][NMeV]; ester I:1-I:C, II:1-II:C; linker I:N-II:N via Actinocin(9to1)), the “A431 cell morphology (in words)” value with A431 cells was “a great amount of cell death and total loss of cell viability”.
